{"source": "patent US20220370473A1", "about": "“USE OF A BENZODIAZEPINE DERIVATIVE AND METHOD OF TREATMENT OF TRAUMATIC BRAIN INJURY” (CENTRO DE INVESTIGACION Y […] MEDICAMENTOS (CIDEM), priority 2019, published 2022)", "format_in_all_cases": "in vivo, Male Wistar rats", "key": {"TBI-induced rats [1]": {"system": "TBI-induced rats", "test": "Open field test after weight-drop TBI", "settings": "TBI group vs control and TBI+JM-20 group, p<0.05; FIG. 3", "protocol": "(§1) Male Wistar rats (200-250 g), with an average age of 60 days were used, conditioned in boxes with food and water at will. Procedures were performed pursuant to the rules of the Animal Ethics and Welfare Committee UFSM (9426190418).\n(§2) TBI was induced through the weight-drop model (MANNIX, R. et al. Chronic Gliosis and Behavioral Deficits in Mice Following Repetitive Mild Traumatic Brain Injury. Journal of Neurosurgery. 2014) A 54 g weight was used released from a 100 cm height freely falling on the animals head. Animals were suspended on aluminum foil, with small cuts to ensure it would break with the impact of the weight allowing for the sudden acceleration of the movement, thus tearing the aluminum foil and falling over a sponge. TBI-induced animals were previously anesthetized with 2% isoflurane. In addition, topical lidocaine was applied to the animals' head to minimize posttraumatic pain (MYCHASIUK, R. et al. A Novel Model of Mild Traumatic Brain Injury for Juvenile Rats. Journal of Visualized Experiments. 2014)\nAnimals were placed in the central area of an open field (56 cm diameter) that had its surface divided into equal parts. The duration of the test was 300 seconds. The number of times animals walked around the quadrants, the number of their exploratory responses (rearings) and their immobility time were analyzed."}, "iba-1": {"system": "iba-1", "test": "Western blotting of iba-1 in brain tissue", "settings": "TBI group vs control, JM-20 and TBI+JM-20, p<0.01, FIG. 9", "protocol": "as §1\n(§3) TBI was induced through the weight-drop model (MANNIX, R. et al. Chronic Gliosis and Behavioral Deficits in Mice Following Repetitive Mild Traumatic Brain Injury. Journal of Neurosurgery. 2014) A 54 g weight was used released from a 100 cm height freely falling on the animals head. […]\n(§4) The Western blot test was performed according to Gerbatin et al (2017) with some adjustments (GERBATIN, R. D. R. et al. Guanosine Protects Against Traumatic Brain Injury-Induced Functional Impairments and Neuronal Loss by Modulating Excitotoxicity, Mitochondrial Dysfunction, and Inflammation. Molecular Neurobiology. 54(10):7585-7596. 2017.). […] The protein concentration of each sample was determined by the bicinchonininc acid protein assay (Thermo Fisher Scientific). […]\n(§5) The mouse anti-β-actin antibody (1: 10,000, Santa Cruz Biotechnology, Santa Cruz, Calif., EE. UU.) was dyed as an additional control to the protein load. […] Then the bands were quantified using the Image Lab software (Bio-Rad)."}, "TBI": {"system": "TBI", "test": "Overall assessment in animal models after a TBI", "settings": "motor performance; cerebral edema; astrocyte reactivity; microglial activation; pro-survival pathway activation", "protocol": "as §1, §2"}, "p-Akt": {"system": "p-Akt", "test": "Western blotting of p-Akt in brain tissue", "settings": "TBI group vs control and TBI+JM-20 groups, p<0.05, FIG. 8", "protocol": "as §1, §3, §4, §5"}, "TBI-induced rats [2]": {"system": "TBI-induced rats", "test": "Cerebral edema (brain water content, wet-dry method)", "settings": "24 h after TBI; TBI group vs control and TBI+JM-20 groups, p<0.05; FIG. 6", "protocol": "as §1\nas §2, with “In addition, topical lidocaine was applied to the animals' head to minimize posttraumatic pain (MYCHASIUK, R. et al. A Novel Model of Mild Traumatic Brain Injury for Juvenile Rats. Journal of Visualized Experiments. 2014)” left out\nThe cerebral edema was determined measuring the water content of the brain using the wet-dry method described by Chen et al (2014) (CHEN, W. et al. Neuroprotective effect of allicin against traumatic brain injury via Akt/endothelial nitric oxide synthase pathway-mediated anti-inflammatory and anti-oxidative activities. Neurochemistry International. 68:28-37. 2014) Twenty-four hours after the TBI, the animals were sacrificed and their brains were rapidly removed and weighed to determine their wet weight. […] The water content of the brain was calculated using the following formula: […]"}, "TBI-induced rats [3]": {"system": "TBI-induced rats", "test": "Beam-walking test after weight-drop TBI", "settings": "TBI group vs control and JM-20 (alone) groups, p<0.05; FIG. 5", "protocol": "as §1\nas §2, with “In addition, topical lidocaine was applied to the animals' head to minimize posttraumatic pain (MYCHASIUK, R. et al. A Novel Model of Mild Traumatic Brain Injury for Juvenile Rats. Journal of Visualized Experiments. 2014)” left out\nThe beam-walking test (HAUSSER, N. et al. Detecting Behavioral Deficits in Rats After Traumatic Brain Injury. J. Vis. Exp. (131), e56044, doi:10.3791/56044. 2018.) consists in animals walking on a hanging wooden beam (2.5 cm wide and 100 cm long) to reach a black wooden box placed at the end of the apparatus. […] Three attempts were analyzed. […] The day of the test, the times of each attempt were recorded and their values were averaged."}, "TBI-induced rats [4]": {"system": "TBI-induced rats", "test": "Rotarod test after weight-drop TBI", "settings": "TBI group vs control, JM-20 and TBI+JM-20 groups, p<0.05; FIG. 1", "protocol": "as §1, §2\nAnimals were trained for 5 minutes before the TBI so they could adapt to the apparatus. The testing session comprised 5 trials and concluded when animals fell off the rotor (3.7 cm diameter, velocity 25-30 rpm) or after the cutoff time, i.e. 300 s. (Whishaw et al., 2003). The first fall latency was analyzed."}, "GFAP": {"system": "GFAP", "test": "Western blotting of GFAP in brain tissue", "settings": "cortex and hippocampus; all groups; FIGS. 11 and 12", "protocol": "as §1, §3, §4, §5"}}}
{"smiles": "CCOC(=O)C1=C(C)NC2=C(C=Nc3ccccc3N2)C1c1ccccc1[N+](=O)[O-]", "note": "(centres unmarked) [JM-20, 3-ethoxycarbonyl-2-methyl-4-(2-nitrophenyl)-4,11-dihydro-1H-pyridol[2,3-b][1,5]benzodiazepine]", "values": [{"measurement": "number of rearings during the open field test", "setting": "TBI-induced rats [1]", "value": "a higher number of rearings was observed in comparison with the control and the TBI+JM-20 group"}, {"measurement": "iba-1 expression in cerebral cortex", "setting": "iba-1", "value": "increased in TBI groups, both in the cerebral cortex in comparison with all the groups"}, {"measurement": "effect on TBI adverse effects (behavioral, morphological and biochemical changes)", "setting": "TBI", "value": "effective in reducing and, in some cases, reversing TBI adverse effects"}, {"measurement": "p-Akt expression in hippocampus", "setting": "p-Akt", "value": "decreased in TBI groups"}, {"measurement": "brain water content", "setting": "TBI-induced rats [2]", "value": "increased in the TBI group in contrast with the control and TBI +JM-20 groups"}, {"measurement": "time to complete the beam-walk test", "setting": "TBI-induced rats [3]", "value": "rats in the TBI group took longer to complete the course than the control and JM-20 groups"}, {"measurement": "first fall latency time on the rotarod test", "setting": "TBI-induced rats [4]", "value": "animals who suffered a TBI showed a reduction of the first fall latency time on the rotarod test in contrast with the other groups"}, {"measurement": "GFAP expression", "setting": "GFAP", "value": "showed no changes in any of the groups"}]}
